What was measured:
[1] = tested on: primary cortical neuronal culture; assay: Detection of cellular reactive oxygen species (CellROX) after 3-NP in primary cortical culture; assay type: cell-based, rat; conditions: for ROS production induced by 3-NP: 0.5 mM, incubated 24 hours before 3-NP
Experimental: Reactive oxygen species (ROS) are detected on primary cortical neuronal culture by CellROX Oxidative Reagents (catalog number 10444, Life Technologies Corp. USA). […] The cells were then exposed to 2.5 mM 3-NP for 24 hours. Subsequently, […] CellROX Reagent was added, and then incubated for […]. CellROX Green Reagent is a DNA dye, and upon oxidation, it binds to DNA; thus, its signal is localized in the nucleus and mitochondria. ROS were quantified by fluorescence intensity. The samples were observed under a laser scanning confocal microscope Zeiss LSM700 (Zeiss, Germany) equipped with filter sets to detect fluorescent signal.

cortical neurons = assay: Mitochondrial respiration, XF Cell Mito Stress Test (OCR); assay type: cell-based, rat; conditions: 3 mM, pre-treatment 24 h
Experimental: The preparation of primary cortical culture was as described before, but the cells were seeded on XF 96 well cell culture microplates. On the day of assay, culture media were changed to XF Assay medium (Seahorse Biosciences, USA). Prior to assay, plates were transferred into an incubator with CO2 supplementation at 37° C. and kept for 1 hour. The overall OCR was calculated.
The XF Cell Mito Stress Test modulates respiration that target components of the electron transport chain (ETC) in the mitochondria to reveal key parameters of metabolic function. The modulators (oligomycin, FCCP, and a mix of rotenone and antimycin A) are serially injected to measure ATP production, maximal respiration, and non-mitochondrial respiration. Proton leak and spare respiratory capacity are then calculated using these parameters.

[2] = tested on: GFAP positive cells in cortical culture; assay: GFAP immunocytochemistry in cortical culture after Aβ25-35; assay type: cell-based, rat; conditions: post-treatment 1 mM
Experimental: Cells were fixed in 4% PFA and washed in PBS, blocked with 2% bovine serum albumin (BSA) and 0.03% Triton X-100 in PBS, and then incubated with mouse monoclonal antibody against microtubule-associated protein-2 (MAP-2) (Cat. No. MAB378, 1:150, CHEMICON International, Inc., Temecula, Calif., USA); rabbit polyclonal antibody against GFAP (Cat. No. Z0334, 1:600, DakoCytomation Denmark A/S, Denmark). The goat anti-mouse IgG Alexa Fluor-conjugated secondary antibodies (1:500; Cat No. A11003, Thermo Scientific); anti-rabbit IgG Alexa Fluor-conjugated secondary antibodies (1:500; Thermo Scientific) were applied respectively to recognize the primary antibodies of the MAP-2 and GFAP.
The coverslips were observed under a digital imaging fluorescence microscope (Olympus BX61; Japan) equipped with filter sets to detect the corresponding fluorescence signals.
Glial fibrillary acidic protein (GFAP) is an intermediate filament protein expressed by cells in the CNS, and is also recognized as an astrocyte maturation marker. Upregulation of GFAP, indicating gliosis, is commonly observed after CNS lesion; therefore, expression of GFAP could be useful to understand the state of neurological diseases.

primary cortical neurons [3] = assay: Aβ25-35 cytotoxicity in primary cortical culture, cell survival (MTT); conditions: 10 μM Aβ 25-35 for 2 days, then drug 1 mM for 4 days; vs no drug treatment
Experimental: MTT assay was used to assess the extents of cell survival. MTT (3-(4,5-dimethylthiazol-2-yl)-2,5-diphenyltetrazolium bromide) was added to the culture, incubated at 37° C. for 4 hours. Insoluble purple formazan products were yield by living cells. The colorimetric method was used to quantify the surviving cells, and “cell survival (%)” was defined as the mean numbers of surviving cells.
Primary cortical cultures were prepared as previous described. Aβ25-35 (Cat. No. A4559, Sigma) was dissolved in autoclaved ddH2O to make a stock solution of 2 mM, dispensed into aliquots, and immediately stored at −80° C. until use.

SH-SY5Y cells = assay: MPTP toxicity in SH-SY5Y cells, MTT assay; assay type: cell-based, human; conditions: MPTP 750 μM, 24 hrs
Experimental: SH-SY5Y, the human neuroblastoma cell line, was incubated with MPTP (750 μM) for 24 hrs.

[4] = tested on: cortical cells with Aβ25-35 exposure; assay: Aβ25-35 cytotoxicity with or without NMDA receptor antagonist MK801, cell survival
Experimental: Aβ25-35 (Cat. No. A4559, Sigma) was dissolved in autoclaved ddH2O to make a stock solution of 2 mM, dispensed into aliquots, and immediately stored at −80° C. until use.
In this study, the application of MK801 could reveal whether the neuroprotective effects of drugs were mediated by NMDA receptor.

primary cortical neurons [5] = assay: 3-NP induced toxicity in primary cortical culture (Hoechst staining, MAP-2 immunocytochemistry); assay type: cell-based, rat; conditions: exposure to 3-NP alone (2.5 mM, 24 h); untreated 0.1
Experimental: Primary cortical cultures were prepared from embryonic day 18 (E18) fetal Sprague Dawley (SD) rat brains. The cells were maintained in Neurobasal medium supplemented with B27 (GIBCO/Life Technologies of Thermo Fisher Scientific Corporation) at 37° C. for 7 days to allow growth of dendrites before experimentation.
3-NP (Cat. No. 73803, Sigma, St. Louis, Mo., USA) was dissolved in phosphate-buffered saline (PBS) as a stock solution of 1 M and adjusted to pH 7.4 with 10 M sodium hydroxide. The 3-NP stock solution was then dispensed into 1-ml aliquots, protected from light, and stored at −20° C. until use.
Hoechst staining is used to assess the extent of the cell survival. Cells were fixed in 4% paraformaldehyde (PFA) in phosphate-buffered saline (PBS), incubated with the Hoechst 33342 diluted in PBS (1:1000) for 5-15 minutes. The Hoechst staining is used to assess the extent of the cell survival after the exposure to 2.5 mM 3-NP for 24 hours.
Cells were fixed in 4% PFA and washed in PBS, blocked with 2% bovine serum albumin (BSA) and treated by 0.03% Triton X-100 in PBS, before being incubated with mouse monoclonal antibody against microtubule-associated protein-2 (MAP-2) in 1:150 dilution (Cat. No. MAB378, CHEMICON International, Inc., Temecula, Calif., USA). The goat anti-mouse IgG Alexa fluor-conjugated secondary antibodies (Cat No. A11003, Thermo Scientific) in 1:500 dilution were applied to recognize the primary antibodies of the MAP-2. For confocal microscopy, the coverslips were observed under a laser-scanning confocal microscope (Zeiss LSM700; Oberkochen, Germany) equipped with filter sets to detect the corresponding fluorescent signals.
The cells were then exposed to 2.5 mM 3-NP for 24 hours.
Quantitative analysis was also performed to assess the extents of cell death. At least three vision fields were randomly selected and the averaged numbers of dead cells and all nuclei per vision field on each coverslip were calculated.

SMILES	ROS production induced by 3-NP [1]	spare respiratory capacity (cortical neurons)	number of GFAP positive cells after Aβ25-35 exposure [2]	also measured
[Cl-].[Li+] [lithium chloride, reference compound]	reduce the amount of cellular ROS	less effective than LiBen	significantly reduced	cortical cell survival after Aβ25-35 (primary cortical neurons [3]): statistical improvement
CN1CC=C(c2ccccc2)CC1 [MPTP, 1-methyl-4-phenyl-1,2,3,6-tetrahydropyridine, reference compound]	–	–	–	cell number reduction (SH-SY5Y cells): about 50%
O=C([O-])c1ccccc1.[Na+] [sodium benzoate, reference compound]	reduce the amount of cellular ROS	less effective than LiBen	did not influence	protective effect in the presence of MK801 ([4]; 1 mM, MK801 10 μM): blocked; cell survival with Aβ25-35 exposure ([4]; post-treatment 1 mM, MK801 0 μM): elevate the cell survival
O=C(O)CC[N+](=O)[O-] [3-NP, 3-Nitropropionic acid, reference compound]	–	–	–	death index (ratio of dead cells to survived cells) (primary cortical neurons [5]): 0.4; increase of ROS production ([1]; 3-NP alone): more than 50%

Source: patent US10668032B2 (SyneuRx International (Taiwan) Corp., priority 2016, dated 2020)
